# Where two headings read alike, the source gives them in different places.
# How the values were obtained:
# [1] = cats; twice daily hard gelatin capsules 25 mg/kg -100 mg/kg; cumulative dose levels as high as 8.4 g/kg; cited from earlier work
# [2] = Stability in murine liver homogenates; assay type: in vitro ADME, Balb/c mice; settings: 100 μM; Balb/c mouse liver homogenate
# Description: At a predetermined time, an aliquot (100 μl) of spiked liver homogenate was extracted by adding 400 μl of acetone to induce precipitation of proteins, as described above.
# Stability in plasma = assay type: in vitro ADME
# Description: Plasma samples (200 μL) were mixed 1:4 with acetone (800 μL) and vortexed for at least 30 seconds. Following centrifugation, the supernatant was transferred into a clean tube and was dried under nitrogen. A 50 μL solution of 50% methanol in 200 mM HCl was used to reconstitute the extraction residue, and 40 μL was injected into the HPLC.
# The whole blood samples were placed in a 37° C. water bath, while plasma samples were stored at −20° C. At a predetermined time, an aliquot (100 μl) of spiked whole blood or plasma was extracted by adding 400 μl of acetone to induce precipitation of proteins, as described above.
# [3] = rats, cited from earlier work
# [4] = Stability in simulated gastric fluid; assay type: in vitro ADME; settings: 100 μM, 37° C., 8 hours, listed as d4T-5′-[p-bromophenyl methoxyalaninyl phosphate]
# Description: The spiked fluids were then placed in a 37° C. water bath. At a predetermined time, 100 μI aliquots of the spiked gastric or intestinal fluid were extracted by adding 400 μl of acetone as discussed above.
# [5] = dogs; twice daily hard gelatin capsules 25 mg/kg -100 mg/kg; cumulative dose levels as high as 8.4 g/kg; cited from earlier work
# [6] = mice, cited from earlier work
# [7] = intraperitoneally or orally for up to 8 consecutive weeks, cumulative dose levels as high as 6.4 g/kg
# [8] = single intraperitoneal or oral bolus dose levels as high as 500 mg/kg
compound,measurement,setting,value
"COC(=O)C(C)NP(=O)(OC[C@@H]1C=C[C@H](n2cc(C)c(=O)[nH]c2=O)O1)Oc1ccc(Br)cc1 (some centres unmarked) [Compound 113, 5′-[4-Bromophenyl methoxylaninylphosphate]-2′, 3′-didehydro-3′-deoxy thymidine]",tolerability of four-week treatment course,[1],very well tolerated
same,time to decomposition in liver homogenate,[2],≤ 30 min
same,time to complete decomposition in plasma,Stability in plasma; 250 μM,≤ 30 min
same,decomposed following incubation with plasma,"Stability in plasma; 250 μM, after 5 minutes",over 95%
same,stability in plasma (in words),"Stability in plasma; spiked plasma, 250 μM compound 113, 100 μM Ala-d4T-MP (followed for 1 day)",very unstable
same,toxicity on daily administration,[3]; [7],not associated with any detectable toxicity
same,acute or subacute toxicity,[3]; [8],very well tolerated without any detectable acute or subacute toxicity
same,stability in gastric fluid (in words),[4],relatively stable
same,tolerability of four-week treatment course,[5],very well tolerated
same,toxicity on daily administration,[6]; [7],not associated with any detectable toxicity
same,acute or subacute toxicity,[6]; [8],very well tolerated without any detectable acute or subacute toxicity

# From patent US20030236218A1, “Aryl phosphate derivatives of d4T with selective activity against adenovirus and HIV” (priority 2002, published 2003)
